Test system: OCI-Ly10 cells
Experiment: Proliferation-Inhibitory Test Against Diffuse Large-Cell B-Cell Lymphoma OCI-Ly10 Strain
Format: cell-based
Settings: Homo sapiens, 96 hours, alamarBlue
Protocol: OCI-Ly10 cells were cultured in IMDM medium (Iscove's Modified Dulbecco's Medium, Manufactured by Thermo Fisher Scientific Inc., hereinafter “medium”) containing 20% Fetal bovine serum and 1% penicillin-streptomycin (Nacalai Tesque, Inc.) in a 5% CO2 incubator. OCI-Ly10 cells were seeded to 96-well plate (20000 cells/well), compounds diluted with medium were added with final concentrations of 0.9 nM to 30000 nM (Final DMSO concentration, 0.3%), incubated for 96 hours and alamorBlue reagent (Thermo Fisher Scientific Inc.) was added.

SMILES | IC50
Nc1nc(-c2cccc(-n3ccc4cc(C5CC5)cc(F)c4c3=O)c2CO)c2cc(-c3cc(F)cc(F)c3)[nH]c2n1 [Example 44, 2-{3-[2-amino-6-(3,5-difluorophenyl)-7H-pyrrolo[2,3-d]pyrimidin-4-yl]-2-(hydroxymethyl)phenyl}-6-cyclopropyl-8-fluoroisoquinolin-1(2H)-one] | 885 nM
Nc1nc(-c2cccc(-n3ccc4cc(C5CC5)cc(F)c4c3=O)c2CO)c2cc(-c3ccc(F)cn3)[nH]c2n1 [Example 45, 2-{3-[2-amino-6-(5-fluoropyridin-2-yl)-7H-pyrrolo[2,3-d]pyrimidin-4-yl]-2-(hydroxymethyl)phenyl}-6-cyclopropyl-8-fluoroisoquinolin-1(2H)-one] | 134 nM
Nc1nc(-c2cccc(-n3ccc4cc(C5CC5)cc(F)c4c3=O)c2CO)c2cc(-c3cncc(F)c3)[nH]c2n1 [Example 46, 2-{3-[2-amino-6-(5-fluoropyridin-3-yl)-7H-pyrrolo[2,3-d]pyrimidin-4-yl]-2-(hydroxymethyl)phenyl}-6-cyclopropyl-8-fluoroisoquinolin-1(2H)-one] | 564 nM
CNc1ccc(-c2cc3c(-c4cccc(-n5ccc6cc(C7CC7)cc(F)c6c5=O)c4CO)nc(N)nc3[nH]2)cn1 [Example 47, 2-(3-{2-amino-6-[6-(methylamino)pyridin-3-yl]-7H-pyrrolo[2,3-d]pyrimidin-4-yl}-2-(hydroxymethyl)phenyl)-6-cyclopropyl-8-fluoroisoquinolin-1(2H)-one] | 204 nM
Nc1nc(-c2cccc(-n3ccc4cc(C5CC5)cc(F)c4c3=O)c2CO)c2cc(-c3ccc(N4CCOCC4)nc3)[nH]c2n1 [Example 48, 2-{3-[2-amino-6-(6-morpholinopyridin-3-yl)-7H-pyrrolo[2,3-d]pyrimidin-4-yl]-2-(hydroxymethyl)phenyl}-6-cyclopropyl-8-fluoroisoquinolin-1(2H)-one] | 54 nM
COc1cc(-c2cc3c(-c4cccc(-n5ccc6cc(C7CC7)cc(F)c6c5=O)c4CO)nc(N)nc3[nH]2)ccn1 [Example 49, 2-{3-[2-amino-6-(2-methoxypyridin-4-yl)-7H-pyrrolo[2,3-d]pyrimidin-4-yl]-2-(hydroxymethyl)phenyl}-6-cyclopropyl-8-fluoroisoquinolin-1(2H)-one] | 88 nM
CN1CCN(Cc2ccc(-c3cc4c(-c5cccc(-n6ccc7cc(C8CC8)cc(F)c7c6=O)c5CO)nc(N)nc4[nH]3)cc2)CC1=O [Example 55, 2-[3-(2-amino-6-{4-[(4-methyl-3-oxopiperazin-1-yl)methyl]phenyl}-7H-pyrrolo[2,3-d]pyrimidin-4-yl)-2-(hydroxymethyl)phenyl]-6-cyclopropyl-8-fluoroisoquinolin-1(2H)-one] | 13 nM
Cc1ccc(-c2cc3c(-c4cccc(-n5ccc6cc(C7CC7)cc(F)c6c5=O)c4CO)nc(N)nc3[nH]2)cc1 [Example 56, 2-{3-[2-amino-6-(p-tolyl)-7H-pyrrolo[2,3-d]pyrimidin-4-yl]-2-(hydroxymethyl)phenyl}-6-cyclopropyl-8-fluoroisoquinolin-1(2H)-one] | 412 nM
Nc1nc(-c2cccc(-n3ccc4cc(C5CC5)cc(F)c4c3=O)c2CO)c2cc(-c3cnn(Cc4ccccc4)c3)[nH]c2n1 [Example 58, 2-{3-[2-amino-6-(1-benzyl-1H-pyrazol-4-yl)-7H-pyrrolo[2,3-d]pyrimidin-4-yl]-2-(hydroxymethyl)phenyl}-6-cyclopropyl-8-fluoroisoquinolin-1(2H)-one] | 27 nM
CN(C)c1ccc(-c2cc3c(-c4cccc(-n5ccc6cc(C7CC7)cc(F)c6c5=O)c4CO)nc(N)nc3[nH]2)cn1 [Example 59, 2-(3-{2-amino-6-[6-(dimethylamino)pyridin-3-yl]-7H-pyrrolo[2,3-d]pyrimidin-4-yl}-2-(hydroxymethyl)phenyl)-6-cyclopropyl-8-fluoroisoquinolin-1(2H)-one] | 63 nM
COCCNc1cncc(-c2cc3c(-c4cccc(-n5ccc6cc(C7CC7)cc(F)c6c5=O)c4CO)nc(N)nc3[nH]2)c1 [Example 60, 2-[3-(2-amino-6-{5-[(2-methoxyethyl)amino]pyridin-3-yl}-7H-pyrrolo[2,3-d]pyrimidin-4-yl)-2-(hydroxymethyl)phenyl}-6-cyclopropyl-8-fluoroisoquinolin-1(2H)-one] | 64 nM
CCn1cc(-c2cc3c(-c4cccc(-n5ccc6cc(C7CC7)cc(F)c6c5=O)c4CO)nc(N)nc3[nH]2)cn1 [Example 62, 2-{3-[2-amino-6-(1-ethyl-1H-pyrazol-4-yl)-7H-pyrrolo[2,3-d]pyrimidin-4-yl]-2-(hydroxymethyl)phenyl}-6-cyclopropyl-8-fluoroisoquinolin-1(2H)-one] | 15 nM
CC(C)n1cc(-c2cc3c(-c4cccc(-n5ccc6cc(C7CC7)cc(F)c6c5=O)c4CO)nc(N)nc3[nH]2)cn1 [Example 63, 2-{3-[2-amino-6-(1-isopropyl-1H-pyrazol-4-yl)-7H-pyrrolo[2,3-d]pyrimidin-4-yl]-2-(hydroxymethyl)phenyl}-6-cyclopropyl-8-fluoroisoquinolin-1(2H)-one] | 16 nM
Nc1nc(-c2cccc(-n3ccc4cc(C5CC5)cc(F)c4c3=O)c2CO)c2cc(-c3cnn(-c4ccccc4)c3)[nH]c2n1 [Example 64, 2-{3-[2-amino-6-(1-phenyl-1H-pyrazol-4-yl)-7H-pyrrolo[2,3-d]pyrimidin-4-yl]-2-(hydroxymethyl)phenyl}-6-cyclopropyl-8-fluoroisoquinolin-1(2H)-one] | 642 nM
COc1ccc(-c2cc3c(-c4cccc(-n5ccc6cc(C7CC7)cc(F)c6c5=O)c4CO)nc(N)nc3[nH]2)cn1 [Example 65, 2-{3-[2-amino-6-(6-methoxypyridin-3-yl)-7H-pyrrolo[2,3-d]pyrimidin-4-yl]-2-(hydroxymethyl)phenyl}-6-cyclopropyl-8-fluoroisoquinolin-1(2H)-one] | 276 nM
Nc1nc(-c2cccc(-n3ccc4cc(C5CC5)cc(F)c4c3=O)c2CO)c2cc(-c3ccc(CN4CCSC4)cc3)[nH]c2n1 [Example 67, 2-(3-{2-amino-6-[4-(thiazolidin-3-ylmethyl)phenyl]-7H-pyrrolo[2,3-d]pyrimidin-4-yl)-2-(hydroxymethyl)phenyl}-6-cyclopropyl-8-fluoroisoquinolin-1(2H)-one] | 82 nM
CC(C)(C)OC(=O)N1CC=C(c2cc3c(-c4cccc(-n5ccc6cc(C7CC7)cc(F)c6c5=O)c4CO)nc(N)nc3[nH]2)CC1 [Example 68, tert-butyl 4-{2-amino-4-[3-(6-cyclopropyl-8-fluoro-1-oxoisoquinolin-2(1H)-yl)-2-(hydroxymethyl)phenyl]-7H-pyrrolo[2,3-d]pyrimidin-6-yl}-5,6-dihydropyridine-1(2H)-carboxylate] | 115 nM
Nc1nc(-c2cccc(-n3ccc4cc(C5CC5)cc(F)c4c3=O)c2CO)c2cc(C3=CCN(C(=O)N4CCOCC4)CC3)[nH]c2n1 [Example 70, 2-(3-{2-amino-6-[1-(morpholine-4-carbonyl)-1,2,3,6-tetrahydropyridin-4-yl]-7H-pyrrolo[2,3-d]pyrimidin-4-yl}-2-(hydroxymethyl)phenyl)-6-cyclopropyl-8-fluoroisoquinolin-1(2H)-one] | 4 nM
CC(C)(C)n1cc(-c2cc3c(-c4cccc(-n5ccc6cc(C7CC7)cc(F)c6c5=O)c4CO)nc(N)nc3[nH]2)cn1 [Example 72, 2-(3-{2-amino-6-[1-(tert-butyl)-1H-pyrazol-4-yl]-7H-pyrrolo[2,3-d]pyrimidin-4-yl}-2-(hydroxymethyl)phenyl)-6-cyclopropyl-8-fluoroisoquinolin-1(2H)-one] | 127 nM
Nc1nc(-c2cccc(-n3ccc4cc(C5CC5)cc(F)c4c3=O)c2CO)c2cc(-c3ccc(CN4CCC(O)CC4)cc3)[nH]c2n1 [Example 73, 2-[3-(2-amino-6-{4-[(4-hydroxypiperidin-1-yl)methyl)phenyl}-7H-pyrrolo[2,3-d]pyrimidin-4-yl)-2-(hydroxymethyl)phenyl]-6-cyclopropyl-8-fluoroisoquinolin-1(2H)-one] | 11 nM
COC1CCN(Cc2ccc(-c3cc4c(-c5cccc(-n6ccc7cc(C8CC8)cc(F)c7c6=O)c5CO)nc(N)nc4[nH]3)cc2)CC1 [Example 74, 2-[3-(2-amino-6-{4-[(4-methoxypiperidin-1-yl)methyl]phenyl}-7H-pyrrolo[2,3-d]pyrimidin-4-yl)-2-(hydroxymethyl)phenyl]-6-cyclopropyl-8-fluoroisoquinolin-1(2H)-one] | 13 nM
CC(=O)N1CCN(Cc2ccc(-c3cc4c(-c5cccc(-n6ccc7cc(C8CC8)cc(F)c7c6=O)c5CO)nc(N)nc4[nH]3)cc2)CC1 [Example 75, 2-[3-(6-{4-[(4-acetylpiperazin-1-yl)methyl]phenyl}-2-amino-7H-pyrrolo[2,3-d]pyrimidin-4-yl)-2-(hydroxymethyl)phenyl]-6-cyclopropyl-8-fluoroisoquinolin-1(2H)-one] | 10 nM
CC1CN(Cc2ccc(-c3cc4c(-c5cccc(-n6ccc7cc(C8CC8)cc(F)c7c6=O)c5CO)nc(N)nc4[nH]3)cc2)CC(C)O1 (stereo not shown) [Example 76, 2-[3-(2-amino-6-{4-[(2,6-dimethylmorpholino)methyl]phenyl}-7H-pyrrolo[2,3-d]pyrimidin-4-yl)-2-(hydroxymethyl)phenyl]-6-cyclopropyl-8-fluoroisoquinolin-1(2H)-one] | 47 nM
Nc1nc(-c2cccc(-n3ccc4cc(C5CC5)cc(F)c4c3=O)c2CO)c2cc(-c3ccc(CN4CCC(F)(F)CC4)cc3)[nH]c2n1 [Example 77, 2-[3-(2-amino-6-{4-[(4,4-difluoropiperidin-1-yl)methyl]phenyl}-7H-pyrrolo[2,3-d]pyrimidin-4-yl)-2-(hydroxymethyl)phenyl]-6-cyclopropyl-8-fluoroisoquinolin-1(2H)-one] | 62 nM
Cn1ccc(-c2cc3c(-c4cccc(-n5ccc6cc(C7CC7)cc(F)c6c5=O)c4CO)nc(N)nc3[nH]2)n1 [Example 78, 2-{3-[2-amino-6-(1-methyl-1H-pyrazol-3-yl)-7H-pyrrolo[2,3-d]pyrimidin-4-yl]-2-(hydroxymethyl)phenyl}-6-cyclopropyl-8-fluoroisoquinolin-1(2H)-one] | 50 nM

Reference: US10793575B2, “Oxoisoquinoline derivatives” (CARNA BIOSCIENCES, INC., priority 2016, dated 2020)
